For 11 compounds, IC50 results are on record in patent US9758508B2, “2,3-dihydro-isoindole-1-on derivative as BTK kinase suppressant, and pharmaceutical composition including same” (CRYSTALGENOMICS, INC., priority 2012, dated 2017).

This experiment deals with BTK (Homo sapiens (Human), UniProt Q06187). The experiment is described as follows: Assay for BTK inhibition activity (ELISA method). The experiment is classed as biochemical. The note with it: 0.4 nM BTK enzyme, 50 μM ATP, 20 minutes at 30° C. On the procedure:
In order to evaluate the activity of the compounds of the present invention as a BTK inhibitor, commercially available BTK (Promega) was used for this experiment. Specifically, an enzymatic reaction was conducted by mixing 0.4 nM of BTK enzyme, 40 μM of biotin-S1 substrate peptide and 50 μM of ATP in a reaction buffer (15 mM Tris-HCl (pH 7.5), 20 mM MgCl2, 2 mM MnCl2, 2 mM DTT, 0.1 mg/ml BSA). The mixture was treated with the test compounds at predetermined concentrations and allowed to react for 20 minutes at 30° C. Upon completion of the reaction, the activities of the test compounds were measured by ELISA method. The absorbance value of an untreated sample was used as a control (100% control). BTK enzyme activities were measured after treatment with various concentrations of the test compounds, and the concentration of test compounds resulting in 50% inhibition of BTK enzyme as compared to the control was determined as IC50 of BTK inhibitor.
For orientation: An ELISA detects its analyte on a solid surface through an enzyme-linked reagent.

SMILES strings stand for the structures.

For orientation: IC50 means the concentration at which inhibition is half-maximal. The low end stands for higher potency, the high end for lower potency.

Sequence of BTK (Q06187 whole entry): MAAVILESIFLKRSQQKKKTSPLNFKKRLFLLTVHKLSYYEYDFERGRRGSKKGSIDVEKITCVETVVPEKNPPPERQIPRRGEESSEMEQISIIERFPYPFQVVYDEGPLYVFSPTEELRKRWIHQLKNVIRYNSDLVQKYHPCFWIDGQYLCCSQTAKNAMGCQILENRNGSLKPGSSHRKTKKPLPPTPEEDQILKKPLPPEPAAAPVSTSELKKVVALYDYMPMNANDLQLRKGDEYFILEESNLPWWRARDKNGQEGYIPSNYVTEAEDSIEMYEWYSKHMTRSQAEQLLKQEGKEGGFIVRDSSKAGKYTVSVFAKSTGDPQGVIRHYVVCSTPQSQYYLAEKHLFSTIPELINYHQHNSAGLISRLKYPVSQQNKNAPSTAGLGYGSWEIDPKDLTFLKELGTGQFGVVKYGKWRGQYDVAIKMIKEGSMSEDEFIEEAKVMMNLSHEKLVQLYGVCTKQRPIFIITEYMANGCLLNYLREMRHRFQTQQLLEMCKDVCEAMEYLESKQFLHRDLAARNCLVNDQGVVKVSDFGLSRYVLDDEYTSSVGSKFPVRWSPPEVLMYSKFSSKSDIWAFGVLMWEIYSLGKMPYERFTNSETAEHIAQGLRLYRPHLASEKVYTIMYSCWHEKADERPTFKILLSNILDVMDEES

On to `Cc1cnc(-c2ccc(-c3ccc(NC(=O)Nc4c(F)cccc4F)cc3F)c3c2C(=O)NC3)[nH]1` [Compound 3, 1-(2,6-difluoro-phenyl)-3-{3-fluoro-4-[7-(5-methyl-1H-imidazol-2-yl)-1-oxo-2,3-dihydro-1H-isoindol-4-yl]-phenyl}-urea], for which the midpoint of inhibition, the IC50, lay at 1 nM.

`Cc1cnc(-c2ccc(-c3ccc(NC(=O)Nc4c(F)cccc4Cl)cc3F)c3c2C(=O)NC3)[nH]1` [Compound 4, 1-(2-chloro-6-fluoro-phenyl)-3-{3-fluoro-4-[7-(5-methyl-1H-imidazol-2-yl)-1-oxo-2,3-dihydro-1H-isoindol-4-yl]-phenyl}-urea] showed an IC50 of 0.9 nM.

With `Cc1cnc(-c2ccc(-c3ccc(NC(=O)Nc4c(F)cc(F)cc4F)cc3F)c3c2C(=O)NC3)[nH]1` [Compound 7, 1-{3-fluoro-4-[7-(5-methyl-1H-imidazol-2-yl)-1-oxo-2,3-dihydro-1H-isoindol-4-yl]-phenyl}-3-(2,4,6-trifluoro-phenyl)-urea], the IC50 worked out at 0.1 nM.

The compound `Cc1cnc(-c2ccc(-c3ccc(NC(=O)Nc4c(F)c(F)c(F)c(F)c4F)cc3F)c3c2C(=O)NC3)[nH]1` [Compound 9, 1-{3-fluoro-4-[7-(5-methyl-1H-imidazol-2-yl)-1-oxo-2,3-dihydro-1H-isoindol-4-yl]-phenyl}-3-pentafluorophenyl-urea] registered an IC50 of 0.4 nM.

`Cc1cnc(-c2ccc(-c3ccc(NC(=O)Nc4c(F)ccc(F)c4F)cc3F)c3c2C(=O)NC3)[nH]1` [Compound 12, 1-{3-fluoro-4-[7-(5-methyl-1H-imidazol-2-yl)-1-oxo-2,3-dihydro-1H-isoindol-4-yl]-phenyl}-3-(2,3,6-trifluoro-phenyl)-urea]: the IC50 was found to be 0.28 nM.

For `Cc1cnc(-c2ccc(-c3ccc(NC(=O)Nc4ccc(F)c(F)c4)cc3F)c3c2C(=O)NC3)[nH]1` [Compound 14, 1-(3,4-difluoro-phenyl)-3-{3-fluoro-4-[7-(5-methyl-1H-imidazol-2-yl)-1-oxo-2,3-dihydro-1H-isoindol-4-yl]-phenyl}-urea], the IC50 turned out to be 5.6 nM.

In the case of `Cc1cnc(-c2ccc(-c3ccc(NC(=O)Nc4ccc(C#N)c(F)c4)cc3F)c3c2C(=O)NC3)[nH]1` [Compound 15, 1-(4-cyano-3-fluorophenyl)-3-(3-fluoro-4-(7-(5-methyl-1H-imidazol-2-yl)-1-oxoisoindolin-4-yl)phenyl)urea], the IC50 is 5 nM.

Compound `Cc1cnc(-c2ccc(-c3ccc(NC(=O)Nc4c(F)ccc(Cl)c4F)cc3F)c3c2C(=O)NC3)[nH]1` [Compound 17, 1-(3-chloro-2,6-difluorophenyl)-3-(3-fluoro-4-(7-(5-methyl-1H-imidazol-2-yl)-1-oxoisoindolin-4-yl)phenyl)urea] showed an IC50 of 0.05 nM.

`Cc1cnc(-c2ccc(-c3ccc(NC(=O)Nc4c(F)ccc(F)c4Cl)cc3F)c3c2C(=O)NC3)[nH]1` [Compound 18, 1-(2-chloro-3,6-difluorophenyl)-3-(3-fluoro-4-(7-(5-methyl-1H-imidazol-2-yl)-1-oxoisoindolin-4-yl)phenyl)urea] registered an IC50 of 0.07 nM.

In turn, `Cc1cnc(-c2ccc(-c3ccc(NC(=O)Nc4c(F)cc(Cl)cc4F)cc3F)c3c2C(=O)NC3)[nH]1` [Compound 19, 1-(4-chloro-2,6-difluoro-phenyl)-3-{3-fluoro-4-[7-(5-methyl-1H-imidazol-2-yl)-1-oxo-2,3-dihydro-1H-isoindol-4-yl]-phenyl}-urea] gave an IC50 of 4 nM.

`Cc1cnc(-c2ccc(-c3ccc(NC(=O)Nc4c(F)c(F)cc(F)c4F)cc3F)c3c2C(=O)NC3)[nH]1` [Compound 20, 1-{3-fluoro-4-[7-(5-methyl-1H-imidazol-2-yl)-1-oxo-2,3-dihydro-1H-isoindol-4-yl]-phenyl}-3-(2,3,5,6-tetrafluoro-phenyl)-urea] showed an IC50 of 0.9 nM.
